Data on 14 compounds can be found in patent publication US20200003762A1, “Diagnostics Platform for Mitochondrial Dysfunctions/Diseases” (BioElectron Technology Corporation, priority 2018, published 2020).

Data set [1] deals with FIFO. The settings on record: cited from earlier work.
Data set [2] has as its system mitochondrial FIFO ATP synthase. The settings on record: cited from earlier work.
Data set [3] concerns isolated rat hearts. The settings on record: during ischemia; cited from earlier work.
Data set [4] concerns β-cell apical anion exchange. As to conditions: read-out: block β-cell apical anion exchange (IC50); cited from earlier work.
The subject of data set [5] is monocarboxylic acid transport. The settings on record: cited from earlier work.
For data set [6], the system named is brush-border membrane vesicles. As to conditions: cited from earlier work.
The subject of data set [7] is β-amyloid. The settings on record: cited from earlier work.
Data set [8] has as its system Mg2+-ATPase. As to conditions: cited from earlier work.
In data set [9] the test system is background K+ current. As to conditions: cited from earlier work.
The subject of data set [10] is plasma and mitochondrial membranes. As to conditions: cited from earlier work.
Data set [11] concerns mitochondrial superoxide production. The settings on record: cited from earlier work.
Data set [12] relates to neoplastic cells. As to conditions: by interfering with hexokinase and disrupting uncoupler-stimulated mitochondrial electron transport; cited from earlier work.
In data set [13] the test system is succinate oxidase. The settings on record: mitochondria preparations of S. cerevisiae; cited from earlier work.
Data set [14] has as its system NADH-cytochrome C reductase. The settings on record: mitochondria preparations of S. cerevisiae; cited from earlier work.
In data set [15] the test system is succinate cythochrome C reductase. The settings on record: mitochondria preparations of S. cerevisiae; cited from earlier work.
Data set [16] relates to NADH oxidase. The settings on record: mitochondria preparations of S. cerevisiae; cited from earlier work.
In data set [17] the test system is NADH:ubiquinone oxidoreductase. As to conditions: cited from earlier work.
Data set [18] concerns HL-1. As to conditions: cited from earlier work.
The subject of data set [19] is mice models of diabetes II. The settings on record: cited from earlier work.
The target in data set [20] is mitochondrial outer membrane protein mitoNEET (Homo sapiens, UniProt Q9NZ45). As to conditions: cited from earlier work.
Data set [21] concerns the target PPARγ (Homo sapiens, UniProt P37231). As to conditions: cited from earlier work.
Data set [22] has as its system mitochondrial ATPase. As to conditions: cited from earlier work.
Data set [23] relates to ferroptosis. The settings on record: cited from earlier work.
The subject of data set [24] is Y79. Kind of data set: Exemplary training dataset: dysfunction D1 in Y79 cultures exposed to inhibitor A8674. Format: cell-based, Human. An excerpt:
or more simply by Yt1 . . . i,d1 . . . j,c1 . . . l or still as a vector Y of the form [y1, y2, . . . , yi*j*l]. Thus, a partial excerpt from an exemplary training data derived from input tensor X for system 100 may be given by Table 7 below:
In the above training dataset, each entry of column Y is a value in the vector Y discussed above. Each entry q of column X(qk) with a hat “^” denotes a vector and is an entry in input tensor X, and is a vector of measured quantities [q1, q2, . . . , qk] of the analytes in the biomarker measurement such as those shown in Tables 3-5. In other words, the training dataset consists of measured vectors q at indices i,j,l of tensor X per above explanation. Human retinoblastoma (Y79) from Table 1 above is used as the cell-line from which in vitro cultures are grown.
Note that rows 1-6 correspond to the scenario when no inhibitor was exposed (zero/O state), and unsurprisingly column Y indicates a 0 or a 0% probability that dysfunction D1 is present in the corresponding culture.

In data set [25] the test system is apoptosis. As to conditions: cited from earlier work.
Data set [26] addresses human porphobilinogen synthase (PBGS; ALAD) (Homo sapiens, UniProt P13716). As to conditions: allosteric; cited from earlier work.
Data set [27] relates to ADP ribosylation. The settings on record: cited from earlier work.

Sequence of human porphobilinogen synthase (PBGS; ALAD) (P13716 whole entry): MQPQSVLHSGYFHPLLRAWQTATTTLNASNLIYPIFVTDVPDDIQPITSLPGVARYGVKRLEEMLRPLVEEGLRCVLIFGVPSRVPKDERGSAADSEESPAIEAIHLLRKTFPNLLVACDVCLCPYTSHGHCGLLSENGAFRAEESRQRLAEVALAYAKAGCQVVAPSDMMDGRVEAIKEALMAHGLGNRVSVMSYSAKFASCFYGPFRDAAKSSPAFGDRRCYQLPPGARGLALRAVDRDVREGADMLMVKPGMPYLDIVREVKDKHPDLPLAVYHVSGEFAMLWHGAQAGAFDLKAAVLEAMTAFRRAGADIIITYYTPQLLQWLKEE
Sequence of PPARγ (P37231 whole entry, species assumed): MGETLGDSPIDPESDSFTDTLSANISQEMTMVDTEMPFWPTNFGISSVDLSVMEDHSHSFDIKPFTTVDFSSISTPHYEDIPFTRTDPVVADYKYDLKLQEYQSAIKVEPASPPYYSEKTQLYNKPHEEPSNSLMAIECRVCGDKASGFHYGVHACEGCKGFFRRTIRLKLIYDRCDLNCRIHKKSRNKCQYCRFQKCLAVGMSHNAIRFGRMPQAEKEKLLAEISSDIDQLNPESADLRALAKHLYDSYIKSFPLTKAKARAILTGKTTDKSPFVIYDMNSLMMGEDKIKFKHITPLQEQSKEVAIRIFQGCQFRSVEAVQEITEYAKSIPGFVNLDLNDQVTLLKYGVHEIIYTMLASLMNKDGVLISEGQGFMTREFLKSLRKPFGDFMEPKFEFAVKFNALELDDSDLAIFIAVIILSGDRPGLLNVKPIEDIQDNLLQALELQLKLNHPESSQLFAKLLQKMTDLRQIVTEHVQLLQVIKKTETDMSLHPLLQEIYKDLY
Sequence of mitochondrial outer membrane protein mitoNEET (Q9NZ45 whole entry): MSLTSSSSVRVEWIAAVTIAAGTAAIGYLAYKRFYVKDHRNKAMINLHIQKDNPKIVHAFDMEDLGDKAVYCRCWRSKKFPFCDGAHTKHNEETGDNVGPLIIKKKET

For the compound `CC1(C)Oc2ccc(S(=O)(=O)N3CCCCC3)cc2[C@@H](N(Cc2ncc[nH]2)c2ccc(Cl)cc2)[C@@H]1O.Cl` [BM0017, BMS-199264 hydrochloride], the “effect on the ATP synthase function of FIFO” value in [1] is reported as 199624 has no effect on the ATP. Also, in [2], the “ATP hydrolase activity of mitochondrial FIFO ATP synthase” value is recorded as “Potently inhibits the ATP”. The “depletion of ATP levels” value in data set [3] is recorded as “blocks depletion of ATP levels,”.

As to `N#CC(=Cc1ccc(O)cc1)C(=O)O` [C2020, α-Cyano-4-hydroxycinnamic acid], the IC50 – broadly, the midpoint of a concentration-inhibition curve – in data set [4] is 2400 µM. Also, the “monocarboxylic acid transport, including lactate and pyruvate transport” value in data set [5] is recorded as “Specific inhibitor of”.

In the case of `N#CC(C#N)=NNc1cccc(Cl)c1` [C2759, Carbonyl cyanide 3-chlorophenylhydrazone], in data set [6], the Cl-/Cl- exchange activities entry is “hepatic lipase and partially”; the “pH gradient-activated Cl- uptake” value was “hepatic lipase and partially”.

Take `N#CC(C#N)=NNc1ccc(OC(F)(F)F)cc1` [C2920, Carbonyl cyanide 4-(trifluoromethoxy)phenylhydrazone]: in data set [7], the β-amyloid production entry is on record as “ATPase activity, inhibits β-”. In addition, the “Mg2+-ATPase activity” value in data set [8] was “[Na+]. FCCP stimulates Mg2+-”. Moreover, in data set [9], the “background K+ current” value is “It also is reported to inhibit” and the inward current entry was “induce a small inward current,”. In addition, in data set [10], the “depolarizing plasma and mitochondrial membranes” value is given as “depolarizing plasma and”. In [11], the “effect of selective glutamate agonist NMDA on mitochondrial superoxide production” value is “amyloid production, and mimics”.

For `O=C(O)c1nn(Cc2ccc(Cl)cc2Cl)c2ccccc12` [L4900, Lonidamine], the “energy metabolism of neoplastic cells” value in data set [12] was “Inhibits the energy metabolism”.

`O=[N+]([O-])c1c(Cl)cccc1-c1c[nH]cc1Cl` [P8861, Pyrrolnitrin from Pseudomonas cepacia]: the succinate oxidase result in [13] is “inhibited succinate oxidase,”. For the same compound, in data set [14], the “NADH-cytochrome C reductase” value is listed as “inhibited succinate oxidase,”. For the same compound, the “succinate cythochrome C reductase” value in data set [15] is reported as “inhibited succinate oxidase,”. For the same compound, in [16], the NADH oxidase result is listed as “inhibited succinate oxidase,”.

In the case of `C=C(C)[C@H]1Cc2c(ccc3c2O[C@@H]2COc4cc(OC)c(OC)cc4[C@@H]2C3=O)O1` [R8875, Rotenone], the “mitochondrial electron transport at NADH:ubiquinone oxidoreductase” value in [17] is recorded as “Inhibitor of mitochondrial”.

As to `O=C(Oc1cc(S(=O)(=O)c2ccccc2)ccc1[N+](=O)[O-])c1ccc(Cl)cc1` [SML1122, BTB06584], the “ATP hydrolase activity of mitochondrial FIFO ATP synthase” value in [2] is recorded as “BTB06584 inhibits the ATP”. In data set [18], the “effect on mitochondrial membrane potential” value was “has no effect on oxygen” and the “effect on oxygen consumption” value is given as “has no effect on oxygen”.

As for `CCOC(=O)N1CCC(NC(=S)Nc2cc(Cl)cc(Cl)c2)CC1` [SML1280, TT01001], in data set [19] (mice models of diabetes II), the glucose intolerance result is given as “TT01001 improves hyperglycemia,”, the hyperglycemia result is given as “TT01001 improves hyperglycemia,” and the hyperlipidemia entry was “TT01001 improves hyperglycemia,”. Moreover, the “pioglitazone associated weight gain” value in data set [19] (mouse, in vivo) is “anti-diabetic effects without”. Besides, the “binding to mitoNEET” value in data set [20] is recorded as “ligands that binds to mitoNEET”. Further, the PPARγ activation entry in data set [21] is “without PPARγ activation”.

Regarding `CC[C@H]1/C=C/C=C/C[C@@H](C)[C@H](O)[C@@](C)(O)C(=O)[C@@H](C)[C@H](O)[C@@H](C)C(=O)[C@@H](C)[C@H](O)[C@@H](C)/C=C/C(=O)O[C@@H]2[C@H](C)[C@H](CC1)O[C@]1(CC[C@H](C)[C@H](C[C@@H](C)O)O1)[C@H]2C` [compound 04876, Oligomycin from Streptomyces diastatochromogenes], in data set [22], the “mitochondrial ATPase and phosphoryl group transfer” value was “Macrolide antibiotic; inhibits”.

For the compound `Cc1c(C)c(O)c(CC[C@](C)(O)CCC[C@H](C)CCC[C@H](C)CCCC(C)C)c(C)c1O` [vitamin E hydroquinone], the inhibition of ferroptosis result in data set [23] is recorded as “potent inhibitor”.

For the compound “Antimycin A from Streptomyces sp. [A8674]”, the “Y (probability that dysfunction D1 is present)” value in data set [24] (1 minute, 1 uL) is reported as 0%; in data set [24] (30 minutes, 5 uL), 100% or 1; in data set [24] (1 hours, 1 uL) it was 100% or 1; in data set [24] (5 hours, 1 uL), 100% or 1; in data set [24] (10 hours, 1 uL), 100% or 1; in data set [24] (2 days, 1 uL), 100% or 1. Also, the apoptosis entry in data set [25] is “complex III. Induces apoptosis”.

In the case of ML-3H2 [M2324], in [26], the “inhibition of human porphobilinogen synthase” value is “hexamer-stabilizing inhibitor”.

Regarding “m-Iodobenzyl-guanidine hemisulfate salt [I9890]”, the ADP ribosylation result in [27] is reported as “Antitumor agent which inhibits”.
